Where two headings read alike, the source gives them in different places.
Key:
mouse auditory function = assay: Auditory brainstem response (ABR); type: in vivo, mice (Mus musculus); settings: for ABR vs control, 24 h treatment / ABR hearing vs control: C57BL/6J mice; for ABR vs control, 24 h treatment: 24 h post-treatment; for ABR hearing vs control: greater benefits at higher frequencies and at 48 and 72 h, Two-Way ANOVA, p < 0.01; for Frequency at which modest improvement in hearing threshold begins: audiometric threshold shift (ABR/DPOAE) vs vehicle-only controls
Description: C57BL/6J male and female mice between postnatal day 24 and 30 P-24-30) were randomized into control and experimental groups (9 mice per group per compound), with each experimental group receiving a single intraperitoneal (IP) injection of Qx-294 or Qx-301 at a dose of 300 mg/kg body weight, dissolved in dimethyl sulfoxide (DMSO). Controls consisted of treatment with DMSO alone (vehicle). A total of 90 adult wild-type C57/BL6 mice were used in this study. Based on the analysis, animals were examined at various times following treatment as described below.
Mice from all groups underwent auditory brainstem response (ABR) and distortion product otoacoustic emissions (DPOAEs) tests before the initiation of treatment with either compounds or vehicle, and at 24, 48, and 72 h post-treatment, as described below. After audiometric testing, pre-treatment mice were placed in a warm and clean cage and monitored until they were awake and able to remain upright in a sternal position. Alternatively, post-treatment mice had their cochleae processed for histological examination.
Mice were anesthetized with a ketamine (18 mg/mL) and xylazine (2 mg/mL) solution (5–9 μL per gram body weight injected intraperitoneally). Core body temperature was maintained at 37.0 ± 0.1 C using a homeothermic heating pad system (FHC, Inc., Bowdoin, ME, USA). Tone burst stimuli were generated and controlled using Tucker Davis Technologies (TDT, Gainesville, FL, USA) System III (RX6, PA5 components). Tone bursts at 8, 16, 32, and 41.2 kHz had 1.0 ms rise-fall times with 1.0 ms plateau (3 ms total duration) and alternating stimulus polarity. Stimuli for ABR testing were calibrated using a Bruel & Kjaar type 4138 ¼” microphone and Nexus type 2691 conditioning amplifier. Stimuli were calibrated in dB peSPL and presented via high-frequency transducers (TDT SA1 driver, MF1 speakers) coupled at the ear via PE tubing. Auditory stimuli were presented at a rate of 17 stimuli per second.

[1] = Cytotoxicity, MTT colorimetric microculture assay; type: cell-based; settings: mouse, HEI-OC1 cells (auditory cell line), NCI criterion of cytotoxicity IC50 < 20 μg/mL
Description: The cytotoxicity of Qx-294 and Qx-301 compounds was assessed in the mouse auditory HEI-OC1 cell line using the (MTT) colorimetric microculture assay method as previously described. HEI-OC1 cells were cultured in DMEM (Corning, NY, USA, 10-013-CVC) supplemented with 10% fetal bovine serum (FBS) (Pansera) and 50 μg/mL ampicillin for 12 h. For cytotoxic assessment, increasing concentrations of Qx-294 and Qx-301 were added to a HEI-OC1 cell suspension (5 × 10^4 cells/well). Cell growth was determined 72 h later by adding 50 µL of MTT (2.5 mg/mL). This was reduced by mitochondrial dehydrogenase of viable cells in an insoluble blue formazan product during the 4 h contact period at 37 °C. After the supernatant was removed, the formazan crystals were solubilized by adding DMSO (100 µL). These plates were read at 570 nm with SpectraMax® M Series Multi-Mode Microplate Reader with Soft Max Pro 7.2 GxP Software (Molecular Devices, Sunnyvale, CA, USA). At each dose level of the compounds tested, as well as the untreated (vehicle-only) controls, absorbance values were recorded and compared between different treatment and time points to assess cell growth and viability.

PAMPA permeability assay = type: in vitro ADME
Description: The parallel artificial membrane permeability assay (PAMPA), an artificial membrane that simulates a biological membrane, was used. A 96-well membrane filter-based microtiter plate system with donor and acceptor compartments separated by the membrane was employed. The compounds were dissolved in 5% DMSO in phosphate-buffered saline (PBS) solution with Lucifer yellow, a dye used to assess membrane integrity. The solution was placed in the donor well, and PBS was added to the acceptor well. The membrane was generated by dissolving lecithin in an inert organic solvent and placed onto a hydrophobic PVDF filter.

[2] = test system: zebrafish lateral line neuromast HCs; assay: Zebrafish neuromast morphology scoring (otoferlin/GFP immunofluorescence); type: in vivo, zebrafish (Danio rerio); settings: 5-dpf zebrafish, 24 h; for Neuromast morphology scores vs control: 50–300 μg/mL in E3 medium, Kruskal–Wallis, p > 0.05
Description: The GFP (Tg(brn3c: GFP) zebrafish larvae expressing HC membrane-bound GFP [19] were used to evaluate the effect of Qx-294 and Qx-301 on HCs and SCs of the lateral line neuromasts. Healthy 5-dpf zebrafish, maintained at 28.5 °C, were randomly distributed into Petri dishes at a density of 50 embryos/larvae per 100 mm^2 and exposed to various concentrations of Qx-294 and Qx-301 (50, 100, 150, 200, 250, and 300 μg/mL) diluted in E3 (5 mM NaCl, 0.17 mM KCl, 0.33 mM CaCl2 and 0.33 MgSO4, pH 7.2) medium for 24 h. Following treatment, the animals were transferred to E3 media for 30 min to recover, then cryoanesthetized and fixed with 4% paraformaldehyde (PFA) overnight at 4 °C. The following neuromasts were analyzed in our studies: IO4 (infraorbital 4), OP1 (opercular 1), M2 (mandibular 2), O1 (otic 1), O2, and MI2 (middle 2). An arbitrary scoring protocol was used to rank the morphology of each neuromast after treatment as follows: 1 (normal rosette-like shape, HCs look normal, HC bundles are properly arranged), 2 (normal rosette-like shape, a few HCs appear to be missing, but HC bundles are properly arranged), 3 (normal rosette-like morphology but several HCs are gone and HC bundles look disturbed), 4 (the rosette-like shape is lost in certain areas, few HCs, and few disrupted HC bundles), and 5 (no rosette-like shape, one or two dispersed HCs and no HC bundles). At least 25 animals per treatment were assessed, for a total of 200 across the entire study. The assessment was performed in a double-blind and unbiased manner. Scores were expressed as percentages of the total of neuromasts analyzed per treatment.
Cochlear dissection in mice and immunofluorescence experiments on zebrafish neuromasts and mouse cochleae were performed as previously described. The antibody and labeling kits used in this study included Otoferlin (Developmental Studies Hybridoma Bank, Iowa City, IA, USA, HCS-1), GFP (Novus Biologicals, NB100-1614), and rabbit anti-myosin VIIa (M7a) (Thermo Scientific, Waltham, MA, USA, PA1-936). Species-specific Alexa Fluor-conjugated secondary antibodies were used for detection. Phalloidin conjugated to Alexa 488 (Thermo Scientific, Waltham, MA, USA, O7466) and DAPI were used for labeling stereocilia and the nucleus, respectively.

| Compound | ABR vs control, 24 h treatment (mouse auditory function) | ABR hearing vs control (mouse auditory function) | Frequency at which modest improvement in hearing threshold begins (mouse auditory function) [kHz] | IC50 at 72 h [1] [µg/mL] | Permeability (PAMPA permeability assay; 16 h incubation) | Papp at 16 h (PAMPA permeability assay; read-out: PAMPA permeability) [×10⁻⁶ cm/s] | Neuromast morphology scores vs control [2] | Neuromast morphology at 50 and 150 μg/mL ([2]; not statistically significant) | Papp at 16 h (PAMPA permeability assay; 16 h incubation, read-out: Permeability) [×10⁻⁶ cm/s] | Neuromast morphology at the highest concentrations vs control ([2]; not statistically significant) |
| --- | --- | --- | --- | --- | --- | --- | --- | --- | --- | --- |
| c1ccc2nc(N3CCOCC3)cnc2c1 [Qx-294, 2-(morpholine)-quinoxaline] | no statistically significant differences | improved hearing for all test frequencies | ≥ 16 | > 20 | 3.5 ± 3.0 ×10^−6 cm/s^−1 | ~3.5 | did not differ significantly from those of the control group | some HC loss was observed |  |  |
| c1ccc2nc(N3CCCC3)cnc2c1 [Qx-301, 2-(pyrrolidine)-quinoxaline] | no statistically significant differences | improved hearing for all test frequencies | ≥ 22.6 | > 20 |  |  | did not differ significantly from those of the control group |  | 0.77 ± 0.91 | improved morphology |
